Reference: article PMC5192466, “Kunitz-Type Peptide HCRG21 from the Sea Anemone Heteractis crispa Is a Full Antagonist of the TRPV1 Receptor” (Marine Drugs, 2016)
Entries after “also recorded” stand apart in the source; their conditions may differ. Like-named read-outs stand apart in the source and are kept apart here. Bridges are numbered along the chain shown (N, C = ends). Where no end group is shown, it is not given here.

Assays:
hKv1.3 = assay: Kv1.3 currents, two-electrode voltage-clamp in Xenopus laevis oocytes; type: cell-based; details: 10 μM peptide, n ≥ 3; holding −90 mV, 500 ms to 0 mV; ND96 pH 7.4
Experimental: (§1) In order to characterize HCRG21 functionally, recombinant HCRG21 was, at a concentration of 10 μM, tested for its activity against an 8 voltage-gated potassium channels (Kv1.1–Kv1.6, hERG, and Shaker IR) and the vanilloid receptor 1 (TRPV1).
(§2) Figure 4 Activity of rHCRG21 on Kv channels expressed in X. laevis oocytes. Traces shown are representative of at least three independent experiments (n ≥ 3). The dotted line indicates the zero current level. The asterisk (*) distinguishes the steady-state current after application of 10 μM peptide.
(§3) For the expression of rKv1.1, hKv1.3, rKv1.4, rKv1.5, rKv1.6, Shaker IR, hERG, and TRPV1 in Xenopus oocytes, the linearized plasmids were transcribed using the T7 or SP6 mMESSAGE-mMACHINE transcription kit (Ambion, Austin, TX, USA). The harvesting of stage V–VI oocytes from anaesthetized female Xenopus laevis frog was previously described. […]
(§4) Two-electrode voltage-clamp recordings were performed at room temperature (18–22 °C) using a Geneclamp 500 amplifier (Molecular Devices, Sunnyvale, CA, USA) controlled by a pClamp data acquisition system (Axon Instruments, Foster City, CA, USA). Whole cell currents from oocytes were recorded 1–4 days after injection. […] TRPV1 currents were measured in ND96 solution using a protocol of −90 mV during 400 s. […]

TRPV1 = biological target: T1, TRPV1 (Rattus norvegicus, UniProt O35433); assay: cell-based
T1 construct: expressed in transfected cells; host or cells: Xenopus laevis oocytes injected with cRNA
Experimental: To control the expression level of the TRPV1 channels, experiments were initiated with a first activation of TRPV1 with 1 μM capsaicin (CAP). […] This activation gives an inward non-selective cation current. […] Before application of HCRG21, cells are washed with ND96 to remove any presence of […]. […] However, when rHCRG21 was co-applied together with the agonist capsaicin, a reduction of the current was observed (Figure 5b). […] A concentration–response curve was constructed in order to assess the concentration dependence of the rHCRG21 induced effect. The IC50 value yielded 6.9 ± 0.4 μM (Figure 5c).
Figure 5 Activity profile of rHCRG21 (10 μM) on the TRPV1 receptor. The figures show the results of one representative experiment. Whole-cell current traces in control and rHCRG21 conditions are shown. […] All data represent the average of at least three independent experiments (n ≥ 3) and are presented as mean ± standard error; (c) Concentration–response curve for rHCRG21 on TRPV1 receptor.
For the expression of rKv1.1, hKv1.3, rKv1.4, rKv1.5, rKv1.6, Shaker IR, hERG, and TRPV1 in Xenopus oocytes, the linearized plasmids were transcribed using the T7 or SP6 mMESSAGE-mMACHINE transcription kit (Ambion, Austin, TX, USA). The harvesting of stage V–VI oocytes from anaesthetized female Xenopus laevis frog was previously described. Oocytes were injected with 50 nL of cRNA at a concentration of 1 ng/nL using a micro-injector (Drummond Scientific, Broomall, PA, USA). The oocytes were incubated in a solution containing (in mM): NaCl, 96; KCl, 2; CaCl2, 1.8; MgCl2, 2 and HEPES, 5 (pH 7.4), supplemented with 50 mg/L gentamicin sulfate.
Two-electrode voltage-clamp recordings were performed at room temperature (18–22 °C) using a Geneclamp 500 amplifier (Molecular Devices, Sunnyvale, CA, USA) controlled by a pClamp data acquisition system (Axon Instruments, Foster City, CA, USA). Whole cell currents from oocytes were recorded 1–4 days after injection. Bath solution composition was ND96 (in mM): NaCl, 96; KCl, 2; CaCl2, 1.8; MgCl2, 2, and HEPES, 5 (pH 7.4). Voltage and current electrodes were filled with 3 M KCl. Resistances of both electrodes were kept between 0.8 and 1.5 MΩ. The elicited currents were filtered and sampled at, respectively, 1 kHz and 10 kHz (for potassium currents) and at, respectively, 0.2 kHz and 0.5 kHz (for TRPV1 currents), using a four-pole low-pass Bessel filter. Leak subtraction was performed using a –P/4 protocol. KV1.1–KV1.6 and Shaker currents were evoked by 500 ms depolarizations to 0 mV followed by a 500 ms pulse to −50 mV, from a holding potential of −90 mV. Current traces of hERG channels were elicited by applying a +40 mV prepulse for 2 s followed by a step to −120 mV for 2 s. TRPV1 currents were measured in ND96 solution using a protocol of −90 mV during 400 s. The recording chamber was perfused at a rate of 2 mL·min^−1 with a ND96 solution. As previously described, capsaicin (2 μM) was used as an agonist and capsazepine (10 μM) as an antagonist of TRPV1. Capsaicin and capsazepine were purchased from Sigma. All data represent at least 3 independent experiments (n ≥ 3) in which independent experiments represent experiments on different cells expressing TRPV1 channel and are presented as mean ± standard error.

α-chymotrypsin [1] = biological target: T2, α-chymotrypsin (Bos taurus, UniProt P00766); assay: α-Chymotrypsin inhibition (Dixon method, BTEE substrate); type: biochemical; details: 133 and 65 mM, enzyme 215 nM, peptide 0 up to 3.2 mM, three parallel experiments
Experimental: (§5) The trypsin/α-chymotrypsin inhibitory activity of the peptide was tested through the standard procedure using N-α-benzoyl-D,L-arginine p-nitroanilide hydrochloride (BAPNA) and ethyl ester of N-benzoyl-L-tyrosine (BTEE) as a substrates, respectively. Determination of the trypsin/α-chymotrypsin inhibition constants of rHCRG21 was performed according to the method of Dixon using substrates concentrations of 133 and 65 mM. The concentration of both enzymes in the reaction mixture was 215 nM. Concentrations of the tested peptide ranged from 0 up to 3.2 mM. The constants were calculated based on the results of three parallel experiments. Computational error limits are in the range of 0.1%–0.5%.

Shaker IR = Shaker IR currents, two-electrode voltage-clamp in Xenopus laevis oocytes; type: cell-based; details: 10 μM peptide, n ≥ 3; holding −90 mV, 500 ms to 0 mV; ND96 pH 7.4
Experimental: as §1, §2, §3, §4

rKv1.5 = assay: Kv1.5 currents, two-electrode voltage-clamp in Xenopus laevis oocytes; type: cell-based; details: 10 μM peptide, n ≥ 3; holding −90 mV, 500 ms to 0 mV; ND96 pH 7.4
Experimental: as §1, §2, §3, §4

Kv1.2 = Kv1.2 currents, two-electrode voltage-clamp in Xenopus laevis oocytes; type: cell-based; details: 10 μM peptide, n ≥ 3; holding −90 mV, 500 ms to 0 mV; ND96 pH 7.4
Experimental: as §1, §2
Two-electrode voltage-clamp recordings were performed at room temperature (18–22 °C) using a Geneclamp 500 amplifier (Molecular Devices, Sunnyvale, CA, USA) controlled by a pClamp data acquisition system (Axon Instruments, Foster City, CA, USA). Whole cell currents from oocytes were recorded 1–4 days after injection. Bath solution composition was ND96 (in mM): NaCl, 96; KCl, 2; CaCl2, 1.8; MgCl2, 2, and HEPES, 5 (pH 7.4). Voltage and current electrodes were filled with 3 M KCl. Resistances of both electrodes were kept between 0.8 and 1.5 MΩ. The elicited currents were filtered and sampled at, respectively, 1 kHz and 10 kHz (for potassium currents) and at, respectively, 0.2 kHz and 0.5 kHz (for TRPV1 currents), using a four-pole low-pass Bessel filter. […] TRPV1 currents were measured in ND96 solution using a protocol of −90 mV during 400 s. […]

rKv1.6 = assay: Kv1.6 currents, two-electrode voltage-clamp in Xenopus laevis oocytes; type: cell-based; details: 10 μM peptide, n ≥ 3; holding −90 mV, 500 ms to 0 mV; ND96 pH 7.4
Experimental: as §1, §2, §3, §4

rKv1.1 = assay: Kv1.1 currents, two-electrode voltage-clamp in Xenopus laevis oocytes; type: cell-based; details: 10 μM peptide, n ≥ 3; holding −90 mV, 500 ms to 0 mV; ND96 pH 7.4
Experimental: as §1, §2, §3, §4

hERG = hERG currents, two-electrode voltage-clamp in Xenopus laevis oocytes; type: cell-based; details: 10 μM peptide, n ≥ 3; +40 mV prepulse 2 s, then −120 mV 2 s; ND96 pH 7.4
Experimental: as §1, §2, §3, §4

trypsin [2] = assay: Trypsin inhibition (Dixon method, BAPNA substrate); type: biochemical
Experimental: as §5

rKv1.4 = assay: Kv1.4 currents, two-electrode voltage-clamp in Xenopus laevis oocytes; type: cell-based; details: 10 μM peptide, n ≥ 3; holding −90 mV, 500 ms to 0 mV; ND96 pH 7.4
Experimental: as §1, §2, §3, §4

trypsin [3] = details: cited from earlier work
Description: The HCGS peptide subfamily and their evolutionary relationships were described in details previously. […] It is shown, that the first known H. crispa analgesic Kunitz-type peptides, APHC1–APHC3, have a Thr residue (instead of Lys or Arg) at position P1, similar to other representatives of the analgesic cluster (Figure 1a,b).

[4] = test system: serine, cysteine and aspartate proteases; details: cited from earlier work
Description: To date, a number of highly homologous native serine protease inhibitors has been isolated from different species: Anemonia sulcata, Heteractis crispa, Anthopleura aff. xanthogrammica, Anthopleura fuscoviridis, Stichodactyla helianthus, and Stichodactyla haddoni.

α-chymotrypsin [5] = biological target: T2, α-chymotrypsin; details: cited from earlier work
Description: The HCGS peptide subfamily and their evolutionary relationships were described in details previously. […] Moreo ...

[6] = test system: voltage-gated potassium channels; details: cited from earlier work
Description: For many potent Kv channel blocking toxins, such as α-DTX, DTX-K, and DTX-I, isolated from the snake Dendroaspis polylepis, it has been well established that mainly a series of positive charged residues (for example, R3, R4, K5, K37, K39, K46, and K50 in α-DTX) are crucial for interaction with the Kv channel. […] Although there are many positively charged residues present in the sequence of HCRG21, they do differ in position with known Kv1.1–Kv1.6 blockers, such as α-DTX, DTX-K, DTX-I, AsKC1, and ShPI-1 (Figure 1c). […] Noteworthy, several positively charged residues are conserved between HCRG21 and ShPI-1 (in positions 8, 19, 28, 51, and 55, Figure 1c). Therefore, other Kv channel isoforms should be tested for their sensitivity to HCRG21 as ...

T1 sequence (O35433 whole entry): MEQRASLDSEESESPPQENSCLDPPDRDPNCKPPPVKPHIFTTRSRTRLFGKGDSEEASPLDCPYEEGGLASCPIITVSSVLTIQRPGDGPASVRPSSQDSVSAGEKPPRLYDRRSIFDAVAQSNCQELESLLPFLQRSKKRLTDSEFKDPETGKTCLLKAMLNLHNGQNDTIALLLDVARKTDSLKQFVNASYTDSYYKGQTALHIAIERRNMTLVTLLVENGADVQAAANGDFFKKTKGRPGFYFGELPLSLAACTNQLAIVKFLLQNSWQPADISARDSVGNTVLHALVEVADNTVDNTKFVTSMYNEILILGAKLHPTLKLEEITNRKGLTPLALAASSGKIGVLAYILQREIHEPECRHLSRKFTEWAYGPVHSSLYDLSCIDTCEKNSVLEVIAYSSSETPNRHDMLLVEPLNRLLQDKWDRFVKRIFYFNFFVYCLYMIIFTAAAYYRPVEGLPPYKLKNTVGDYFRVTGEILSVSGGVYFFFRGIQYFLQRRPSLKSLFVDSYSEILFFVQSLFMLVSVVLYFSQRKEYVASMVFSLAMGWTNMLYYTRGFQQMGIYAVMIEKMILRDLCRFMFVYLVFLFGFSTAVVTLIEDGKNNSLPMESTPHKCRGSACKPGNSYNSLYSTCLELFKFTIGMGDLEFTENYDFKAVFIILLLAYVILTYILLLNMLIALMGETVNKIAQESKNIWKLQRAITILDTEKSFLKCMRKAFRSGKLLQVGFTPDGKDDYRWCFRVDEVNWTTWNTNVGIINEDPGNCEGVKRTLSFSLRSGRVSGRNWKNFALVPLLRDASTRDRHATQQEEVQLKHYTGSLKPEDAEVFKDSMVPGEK

Substance | activity on Kv1.3 (hKv1.3) | inhibition of capsaicin-induced TRPV1 current (TRPV1; 10 μM peptide co-applied with capsaicin (2 μM), −90 mV, ND96 pH 7.4, mean ± standard error, n ≥ 3) | effect on TRPV1 when administered alone (TRPV1; 10 μM, in the absence of capsaicin) | effect on TRPV1 when applied prior to capsaicin (TRPV1; applied prior to any stimulation of capsaicin, data not shown) | IC50 (TRPV1; co-applied with capsaicin (2 μM), −90 mV, ND96 pH 7.4, 18–22 °C, mean ± standard error, n ≥ 3, read-out: IC50, inhibition of capsaicin-induced TRPV1 current) [nM] | effect on TRPV1 channel (conclusion) (TRPV1; electrophysiological data) | Ki (α-chymotrypsin [1]) [nM] | activity on Shaker IR (Shaker IR) | activity on Kv1.5 (rKv1.5) | activity on Kv1.2 (Kv1.2) | activity on Kv1.6 (rKv1.6) | activity on Kv1.1 (rKv1.1) | activity on hERG (hERG) | Ki (trypsin [2]; Dixon method, BAPNA substrate, 133 and 65 mM, enzyme 215 nM, peptide 0 up to 3.2 mM, three parallel experiments) [nM] | Trypsin inhibitory activity of HPLC fraction (trypsin [2]; fraction marked rHCRG21 after RP-HPLC) | activity on Kv1.4 (rKv1.4) | Ki (trypsin [3]) [nM] | protease inhibitory specificity [4] | Ki (α-chymotrypsin [5]) [nM] | binding to Kv1.1, Kv1.2, and Kv1.6 channels [6]
RGICSEPKVVGPCTAYFRRFYFDSETGKCTPFIYGGCEGNGNNFETLRACRAICRA (disulfide 4-54, 13-37, 29-50 (inferred)) [rHCRG21] | did not exert any activity | 59.3% ± 4.3% | did not show any significant effect; also recorded: Lack of effect | no activity was seen | 6900 ± 400 | strongly inhibits the TRPV1 channel | 700 | did not exert any activity | did not exert any activity | did not exert any activity | did not exert any activity | did not exert any activity | did not exert any activity | 200 | Trypsin inhibitory activity was detected | did not exert any activity |  |  |  | 
SHPI-1: protease inhibitor from the sea anemone Stichodactyla helianthus (UniProt P31713) (SICSEPKKVGRCKGYFPRFYFDSETGKCTPFIYGGCGGNGNNFETLHQCRAICRA; UniProt P31713 1-55, looked up) |  |  |  |  |  |  |  |  |  |  |  |  |  |  |  |  | 0.11 | inhibits not only serine but also cysteine and aspartate proteases | 2.3 | binds with high affinity
